Article PMC11584562 (The Journal of Biological Chemistry, 2024)

Key:
LiAcs1 [1] = molecular target: T1, LiAcs1 (Leishmania infantum, UniProt A4I093); experiment: biochemical
T1 sequence (A4I093 1-705): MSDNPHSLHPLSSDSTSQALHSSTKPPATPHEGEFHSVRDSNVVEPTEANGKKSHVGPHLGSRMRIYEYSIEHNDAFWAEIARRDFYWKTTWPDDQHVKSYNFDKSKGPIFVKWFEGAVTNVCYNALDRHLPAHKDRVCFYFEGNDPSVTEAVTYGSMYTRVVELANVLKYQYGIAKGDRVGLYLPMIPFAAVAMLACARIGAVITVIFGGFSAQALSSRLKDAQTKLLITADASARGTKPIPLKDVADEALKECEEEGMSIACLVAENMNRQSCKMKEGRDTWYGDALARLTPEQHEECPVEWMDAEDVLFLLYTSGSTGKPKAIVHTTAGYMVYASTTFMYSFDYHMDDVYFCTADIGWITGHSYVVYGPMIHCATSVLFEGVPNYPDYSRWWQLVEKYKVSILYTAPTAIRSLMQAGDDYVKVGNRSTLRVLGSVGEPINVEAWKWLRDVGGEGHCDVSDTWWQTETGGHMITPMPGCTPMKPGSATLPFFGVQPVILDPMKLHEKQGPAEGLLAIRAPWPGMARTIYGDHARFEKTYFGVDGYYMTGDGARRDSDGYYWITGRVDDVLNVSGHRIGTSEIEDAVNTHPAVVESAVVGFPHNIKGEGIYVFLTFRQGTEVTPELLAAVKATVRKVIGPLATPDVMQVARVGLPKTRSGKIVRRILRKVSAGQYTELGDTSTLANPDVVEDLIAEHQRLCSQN

CnKbc1 [2] = molecular target: T2, CnKbc1 (Cryptococcus neoformans, UniProt J9VT24); experiment: EnzChek pyrophosphate-release coupled assay; type: biochemical
T2 sequence (J9VT24 1-696): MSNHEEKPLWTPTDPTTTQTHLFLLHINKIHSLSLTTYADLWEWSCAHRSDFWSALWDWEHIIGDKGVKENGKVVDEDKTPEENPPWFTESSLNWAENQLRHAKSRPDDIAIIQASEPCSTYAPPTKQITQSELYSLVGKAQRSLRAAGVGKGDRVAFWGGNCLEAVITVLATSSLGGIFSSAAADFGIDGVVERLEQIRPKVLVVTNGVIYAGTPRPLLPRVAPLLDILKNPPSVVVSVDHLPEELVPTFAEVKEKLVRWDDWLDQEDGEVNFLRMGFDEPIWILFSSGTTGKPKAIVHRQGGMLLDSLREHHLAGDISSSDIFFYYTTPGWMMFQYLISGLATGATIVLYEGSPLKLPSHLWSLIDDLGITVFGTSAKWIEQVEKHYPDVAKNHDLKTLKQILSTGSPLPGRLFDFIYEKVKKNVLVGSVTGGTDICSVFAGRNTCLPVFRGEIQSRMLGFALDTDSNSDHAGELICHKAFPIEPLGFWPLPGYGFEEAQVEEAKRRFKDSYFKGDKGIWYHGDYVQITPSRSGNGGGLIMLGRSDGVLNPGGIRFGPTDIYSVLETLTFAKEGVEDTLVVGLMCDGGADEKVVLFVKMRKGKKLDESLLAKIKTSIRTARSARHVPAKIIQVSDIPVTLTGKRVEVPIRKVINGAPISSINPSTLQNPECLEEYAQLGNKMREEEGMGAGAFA

CnAcs1 [3] = molecular target: T3, CnAcs1 (Cryptococcus neoformans, UniProt J9VFT1); experiment: biochemical
T3 sequence (J9VFT1 1-680): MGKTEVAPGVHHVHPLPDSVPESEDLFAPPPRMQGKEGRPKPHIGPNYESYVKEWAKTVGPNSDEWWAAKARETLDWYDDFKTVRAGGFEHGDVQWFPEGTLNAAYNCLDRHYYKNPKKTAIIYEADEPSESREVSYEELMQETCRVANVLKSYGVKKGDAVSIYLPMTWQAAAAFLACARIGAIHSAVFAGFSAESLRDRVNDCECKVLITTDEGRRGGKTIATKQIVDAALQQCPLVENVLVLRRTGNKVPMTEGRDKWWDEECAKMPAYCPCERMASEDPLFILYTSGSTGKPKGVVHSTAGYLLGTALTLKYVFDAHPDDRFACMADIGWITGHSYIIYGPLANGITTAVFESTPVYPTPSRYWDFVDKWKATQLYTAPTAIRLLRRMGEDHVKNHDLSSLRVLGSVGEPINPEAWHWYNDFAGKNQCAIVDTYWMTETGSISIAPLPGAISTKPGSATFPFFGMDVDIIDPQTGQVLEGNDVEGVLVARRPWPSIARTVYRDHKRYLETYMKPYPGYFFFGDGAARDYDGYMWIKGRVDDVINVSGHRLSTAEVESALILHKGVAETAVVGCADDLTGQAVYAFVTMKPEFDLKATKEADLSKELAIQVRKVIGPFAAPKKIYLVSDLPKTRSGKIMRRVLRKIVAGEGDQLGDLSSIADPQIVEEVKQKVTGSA

CnAcs1 [4] = molecular target: T3, CnAcs1; experiment: EnzChek pyrophosphate-release coupled assay; type: biochemical
CnKbc1 [5] = molecular target: T2, CnKbc1; experiment: biochemical
LiAcs1 [6] = molecular target: T1, LiAcs1; experiment: EnzChek pyrophosphate-release coupled assay; type: biochemical
LiAcs1 [7] = molecular target: T1, LiAcs1; experiment: biochemical; remark: listed apart in the source
CnAcs1 [8] = molecular target: T3, CnAcs1; experiment: biochemical; remark: listed apart in the source
CnKbc1 [9] = molecular target: T2, CnKbc1; experiment: biochemical; remark: listed apart in the source
[10] = substrate: CC(=O)O; experiment: EnzChek pyrophosphate-release coupled assay; type: biochemical, Leishmania infantum; conditions: ATP and CoA as co-substrates, 4 mM MgCl2, 37 °C
[11] = substrate: CC(=O)CC(=O)O; experiment: EnzChek pyrophosphate-release coupled assay; type: biochemical, Leishmania infantum; conditions: ATP and CoA as co-substrates, 4 mM MgCl2, 37 °C

Molecule `CCCCOP(=O)(O)OC[C@H]1O[C@@H](n2cnc3c(N)ncnc32)[C@H](O)[C@@H]1O` [viii, Butyl-AMP] has an IC50 (LiAcs1 [1]) greater than 100 µM, an IC50 (CnKbc1 [2]) of 7.8 µM and an IC50 (CnAcs1 [3]) greater than 100 µM.

Work on `CCCOP(=O)(O)OC[C@H]1O[C@@H](n2cnc3c(N)ncnc32)[C@H](O)[C@@H]1O` [iv, Propyl-AMP] yielded an IC50 (CnAcs1 [4]) of 21.1 µM, an IC50 (CnKbc1 [5]) greater than 100 µM and an IC50 (LiAcs1 [6]) of 13.5 µM.

In the case of `CCOP(=O)(O)OC[C@H]1O[C@@H](n2cnc3c(N)ncnc32)[C@H](O)[C@@H]1O` [ii, Ethyl-AMP], the IC50 (CnAcs1 [4]) is reported as 8 µM, the IC50 (LiAcs1 [6]) is reported as 2 µM and the IC50 (CnKbc1 [2]) is reported as greater than 100 µM.

`Nc1ncnc2c1ncn2[C@@H]1O[C@H](COP(=O)(O)OC2CCCC2)[C@@H](O)[C@H]1O` [x, Cyclopentyl-AMP] showed an IC50 (LiAcs1 [7]) greater than 100 µM, an IC50 (CnAcs1 [8]) greater than 100 µM and an IC50 (CnKbc1 [9]) greater than 100 µM.

In the case of `COP(=O)(O)OC[C@H]1O[C@@H](n2cnc3c(N)ncnc32)[C@H](O)[C@@H]1O` [i, Methyl-AMP], the IC50 (CnKbc1 [5]) is reported as greater than 100 µM, the IC50 (LiAcs1 [6]) is reported as 69.9 µM and the IC50 (CnAcs1 [3]) is reported as greater than 100 µM.

For `CC(C)OP(=O)(O)OC[C@H]1O[C@@H](n2cnc3c(N)ncnc32)[C@H](O)[C@@H]1O` [v, Isopropyl-AMP], the IC50 (CnAcs1 [4]) was 25.3 µM, the IC50 (CnKbc1 [5]) was greater than 100 µM and the IC50 (LiAcs1 [6]) was 6.7 µM.

`Nc1ncnc2c1ncn2[C@@H]1O[C@H](COP(=O)(O)OC2CC2)[C@@H](O)[C@H]1O` [iii, Cyclopropyl-AMP] was tested, and the IC50 (CnAcs1 [4]) was 8.7 µM, the IC50 (CnKbc1 [5]) was greater than 100 µM and the IC50 (LiAcs1 [6]) was 2.2 µM.

`C#CCOP(=O)(O)OC[C@H]1O[C@@H](n2cnc3c(N)ncnc32)[C@H](O)[C@@H]1O` [vii, Propargyl-AMP] gave an IC50 (CnAcs1 [4]) of 55.1 µM, an IC50 (CnKbc1 [5]) greater than 100 µM and an IC50 (LiAcs1 [6]) of 10.2 µM.

For `C=CCOP(=O)(O)OC[C@H]1O[C@@H](n2cnc3c(N)ncnc32)[C@H](O)[C@@H]1O` [vi, Allyl-AMP], the IC50 (CnAcs1 [4]) was 41 µM, the IC50 (CnKbc1 [5]) was greater than 100 µM and the IC50 (LiAcs1 [6]) was 12.5 µM.

B1: LiAcs1 (Leishmania infantum) (protein)
chain: MSDNPHSLHPLSSDSTSQALHSSTKPPATPHEGEFHSVRDSNVVEPTEANGKKSHVGPHLGSRMRIYEYSIEHNDAFWAEIARRDFYWKTTWPDDQHVKSYNFDKSKGPIFVKWFEGAVTNVCYNALDRHLPAHKDRVCFYFEGNDPSVTEAVTYGSMYTRVVELANVLKYQYGIAKGDRVGLYLPMIPFAAVAMLACARIGAVITVIFGGFSAQALSSRLKDAQTKLLITADASARGTKPIPLKDVADEALKECEEEGMSIACLVAENMNRQSCKMKEGRDTWYGDALARLTPEQHEECPVEWMDAEDVLFLLYTSGSTGKPKAIVHTTAGYMVYASTTFMYSFDYHMDDVYFCTADIGWITGHSYVVYGPMIHCATSVLFEGVPNYPDYSRWWQLVEKYKVSILYTAPTAIRSLMQAGDDYVKVGNRSTLRVLGSVGEPINVEAWKWLRDVGGEGHCDVSDTWWQTETGGHMITPMPGCTPMKPGSATLPFFGVQPVILDPMKLHEKQGPAEGLLAIRAPWPGMARTIYGDHARFEKTYFGVDGYYMTGDGARRDSDGYYWITGRVDDVLNVSGHRIGTSEIEDAVNTHPAVVESAVVGFPHNIKGEGIYVFLTFRQGTEVTPELLAAVKATVRKVIGPLATPDVMQVARVGLPKTRSGKIVRRILRKVSAGQYTELGDTSTLANPDVVEDLIAEHQRLCSQN
B1 was tested, and the Km [10] was 61 (95% CI 45, 83) μM and the Km [11] was 88 (95% CI 71, 110) μM.
